Data on 4 compounds can be found in patent publication US5599902A, “Cancer inhibitory peptides” (Arizona Board of Regents acting on behalf of Arizona State …, priority 1994, dated 1997).

In series [1] the test system is L1210 murine leukemia cells. The series can be described thus: Activity against L1210 murine leukemia cells (IC50). Type of series: cell-based. The source says:
A molecule (22c) was designed based on the conformational similarities with (6R)-isodolastatin 10 (See FIGS. 1a and 1b). The molecule was then synthesized by the procedure outlined in this application.

The subject of series [2] is P388 Lymphocytic Leukemia. Nature of the series: Murine in vivo system: P388 Lymphocytic Leukemia, T/C. An excerpt: (§1) The synthesis of potentially useful peptides presents one of the most essential and promising approaches to new types of anticancer and immunosuppressant drugs. The Dolastatins, an unprecedented series of linear and cyclic antineoplastic and/or cytostatic peptides isolated from Indian Ocean sea hare Dolabella auricularia represent excellent leads for synthetic modification. The very productive sea hare Dolabella auricularia has produced a number of structurally distinct peptides with excellent antineoplastic activity. Presently dolastatin 10, a linear pentapeptide represents the most important member and is a potentially useful antineoplastic agent. […] Recently the total synthesis and absolute configuration of this structurally unique and biologically active peptide was reported.
(§2) Experimental Anticancer Activity of Dolastatin 10 in Murine in vivo Systems, T/C (μg/kg)

The test system of series [3] is L1210 Lymphocytic Leukemia. The series can be described thus: Murine in vivo system: L1210 Lymphocytic Leukemia, T/C.
Excerpt: as §1, §2

The test system of the next series is B16 Melanoma. Nature of the series: Murine in vivo system: B16 Melanoma, T/C.
Excerpt: as §1, §2

A further series concerns M5076 Ovary Sarcoma. Nature of the series: Murine in vivo system: M5076 Ovary Sarcoma, T/C.
Excerpt: as §1, §2

In series [4] the test system is LOX Human Melanoma Xenograft. The series can be described thus: LOX Human Melanoma Xenograft to Nude Mouse, T/C. It counts as in vivo.
Excerpt: as §2

In a further series the test system is Human Mammary Xenograft. Nature of the series: Human Mammary Xenograft Nude Mouse, T/C. Type of series: in vivo.
Excerpt: as §1, §2
A general note: In xenograft studies the graft and the host belong to different species.

Series [5] has as its system OVCAR-3 Human Ovary Xenograft. The series can be described thus: OVCAR-3 Human Ovary Xenograft Nude Mouse, T/C. It counts as in vivo. The following applies: OVCAR-3 xenograft, dose 40 μg/kg.
Excerpt: as §1, §2

Series [6] has as its system MX-1 Human Mammary Xenograft. The series can be described thus: MX-1 Human Mammary Xenograft (Tumor Regression), T/C. It counts as in vivo, Murine.
Excerpt: as §1, §2

The next series relates to OVCAR-3. The series can be described thus: Human cancer cell line growth inhibition, Ovarian OVCAR-3. It counts as cell-based. The following applies: Ovarian OVCAR-3, 48 hours. As to the method:
(§3) Cancer Inst. […] Cancer Inst. Reports, Vol 81, No. 14, Page 1088, Jul.
(§4) The only difference is historical usage.
(§5) Percent Growths are calculated for each dose.
(§6) This is the "baseline count" or "Tzero reading".

For the next series, the system named is SF-2X5. The series can be described thus: Human cancer cell line growth inhibition, CNS SF-2X5. Type of series: cell-based. The following applies: CNS SF-2X5, 48 hours. As to the method: as §3, §4, §5, §6
Another series relates to A4X8. The series can be described thus: Human cancer cell line growth inhibition, Renal A4X8. It counts as cell-based. The settings on record: Renal A4X8, 48 hours. The procedure:
as §3, §4, §5, §6

The next series deals with NCI-H460. Nature of the series: Human cancer cell line growth inhibition, Lung-NSC NCI-H460. It counts as cell-based. The following applies: Lung-NSC NCI-H460, 48 hours. As to the method: as §3, §4, §5, §6
A further series relates to KM20L2. The series can be described thus: Human cancer cell line growth inhibition, Colon KM20L2. It counts as cell-based. The following applies: Colon KM20L2, 48 hours. As to the method: as §3, §4, §5, §6
The subject of a further series is SK-MEL-5. The series can be described thus: Human cancer cell line growth inhibition, Melanoma SK-MEL-5. It counts as cell-based. The following applies: Melanoma SK-MEL-5, 48 hours. As to the method: as §3, §4, §5, §6
Series [7] deals with PS-388 Leukemia cell line. Nature of the series: PS-388 mouse leukemia cell line growth inhibition. It counts as cell-based. The settings on record: Mouse Leukemia PS-388, 48 hours. As to the method: as §4, §5, §6
Setting [8] is: LOX in separate experiments, dose 9.0 μg/kg.
Setting [9] is: LOX in separate experiments, dose 26 μg/kg.
The mark [10] stands for this setting: LOX in separate experiments, dose 43 μg/kg.

As to `CC[C@H](C)[C@@H]([C@@H](CC(=O)N1CCC[C@H]1CCC(=O)N[C@@H](CCSC)C(=O)OC)OC)N(C)C(=O)[C@@H](NC(=O)[C@H](C(C)C)N(C)C)C(C)C` [22c, Dov-val-dil-desmethoxy-desmethyl-dolaproine-methionine methyl ester], the IC50 (usually the concentration that gives 50% inhibition) in [1] is 4 µM.

For the compound `CC[C@H](C)[C@@H]([C@@H](CC(=O)N1CCC[C@H]1[C@H](OC)[C@@H](C)C(=O)N[C@@H](Cc1ccccc1)c1nccs1)OC)N(C)C(=O)[C@@H](NC(=O)[C@H](C(C)C)N(C)C)C(C)C` [Dolastatin 10], the T/C in series [2] (P388, dose 1.63 μg/kg) is on record as 137; in series [2] (P388, dose 3.25 μg/kg), 146; in series [2] (P388, dose 6.5 μg/kg) it was 155; in series [2] (P388, dose 13.0 μg/kg), “toxic”; in [3] (L1210, dose 1.63 μg/kg) it was 120; in series [3] (L1210, dose 3.25 μg/kg) it was 139. Also, the T/C in series [3] (L1210, dose 6.5 μg/kg) is listed as 135; in series [3] (L1210, dose 13 μg/kg) it was 152; in the series with B16 Melanoma (B16, dose 1.44 μg/kg) it was 142; with B16 Melanoma (B16, dose 3.4 μg/kg), 171; in the series with B16 Melanoma (B16, dose 4.0 μg/kg), 205; in the series with B16 Melanoma (B16, dose 6.67 μg/kg), 182. Besides, the T/C in the series on B16 Melanoma (B16, dose 11.11 μg/kg) is 238; in the series with M5076 Ovary Sarcoma (M5076, dose 3.25 μg/kg), 151; in the series with M5076 Ovary Sarcoma (M5076, dose 6.5 μg/kg), 142; in the series with M5076 Ovary Sarcoma (M5076, dose 13 μg/kg), 166; in the series with M5076 Ovary Sarcoma (M5076, dose 26 μg/kg) it was “toxic”; in series [4] (setting [8]), 138. In addition, the T/C in series [4] (LOX in separate experiments, dose 15 μg/kg) was 192; in [4] (setting [9]), 181; in series [4] (setting [10]), 340; in series [4] (LOX, dose 3.25 μg/kg), 170; in [4] (LOX, dose 6.5 μg/kg), 206; in series [4] (LOX, dose 13 μg/kg), 301. Further, the T/C was 301 in [4] (LOX, dose 26 μg/kg); “toxic” in series [4] (LOX, dose 52 μg/kg); 178 with Human Mammary Xenograft (dose 6.25 μg/kg); 137 in the series with Human Mammary Xenograft (dose 13 μg/kg); “Toxic” in the series on Human Mammary Xenograft (dose 26 μg/kg); 300 in series [5]. Also, the cures in series [2] (P388, dose 3.25 μg/kg) is on record as 17%; in series [2] (P388, dose 6.5 μg/kg), 17%; in the series with B16 Melanoma (B16, dose 11.11 μg/kg) it was 40%; in [4] (setting [8]), 17%; in [4] (setting [9]) it was 33%; in series [4] (setting [10]), 50%. In addition, the cures came to 17% in series [4] (LOX, dose 3.25 μg/kg); 33% in series [4] (LOX, dose 6.5 μg/kg); 50% in [4] (LOX, dose 13 μg/kg); 67% in series [4] (LOX, dose 26 μg/kg). The “T/C (Tumor Regression)” value in series [6] (MX-1, dose 6.25 μg/kg) is on record as 69; in series [6] (MX-1, dose 13 μg/kg) it was 61; in series [6] (MX-1, dose 26 μg/kg), 50; in [6] (MX-1, dose 52 μg/kg), 14.

As to “Dov-Val-Dil-Dap methyl ester [compound 21]”, the GI-50 came to 0.0035 µg/mL in the series with OVCAR-3; 0.0038 µg/mL in the series on SF-2X5; 0.02 µg/mL with A4X8; 0.0022 µg/mL in the series on NCI-H460; 0.021 µg/mL in the series with KM20L2; 0.0087 µg/mL in the series on SK-MEL-5. Moreover, the LC-50 in the series with OVCAR-3, with SF-2X5, in the series on A4X8, in the series on NCI-H460, with KM20L2 and in the series with SK-MEL-5 was greater than 1 µg/mL throughout. The TGI (usually the concentration giving total growth inhibition) in the series on OVCAR-3 was 0.026 µg/mL; with SF-2X5 it was greater than 0.035 µg/mL; with A4X8, greater than 1 µg/mL; with NCI-H460, 0.021 µg/mL; in the series with KM20L2, 0.23 µg/mL; in the series with SK-MEL-5 it was greater than 1 µg/mL. In addition, in [7], the ED-50 amounted to 0.0297 µg/mL.

On to “Z-Val-Dil-Dap-Phenethylamine [compound 18]”, for which the GI-50 in the series with OVCAR-3 is 0.051 µg/mL; in the series with SF-2X5 it was 0.14 µg/mL; in the series with A4X8 it was 0.16 µg/mL; in the series with NCI-H460 it was 0.21 µg/mL; in the series on KM20L2, 0.24 µg/mL; in the series on SK-MEL-5 it was 0.29 µg/mL. Also, the LC-50 in the series with OVCAR-3 is 0.99 µg/mL; in the series with SF-2X5, greater than 1 µg/mL; in the series with A4X8, greater than 1 µg/mL; with NCI-H460 it was greater than 1 µg/mL; in the series with KM20L2, greater than 1 µg/mL; with SK-MEL-5, greater than 1 µg/mL. Moreover, the TGI in the series on OVCAR-3 was 0.24 µg/mL; in the series with SF-2X5, 0.43 µg/mL; in the series on A4X8 it was 0.52 µg/mL; with NCI-H460, 0.66 µg/mL; with KM20L2 it was 0.67 µg/mL; in the series on SK-MEL-5 it was greater than 1 µg/mL. Besides, the ED-50 in [7] is greater than 1 µg/mL.
